Each block holds one molecule with its values, some of them ahead of it.
Biological target: T1, Met kinase (Homo sapiens, UniProt P08581)
T1 construct: 6His (N); purchased Upstate 14-526; host or cells: Sf21 insect cells (S. frugiperda), baculovirus
Assay: Met kinase inhibition, flashplate method
Assay type: biochemical
Conditions: 33P-ATP, substrate pAGLT, 3 hrs at room temperature
Text: According to the manufacturer's data (Met, active, upstate, catalogue No. 14-526), Met kinase is expressed for the purposes of protein production in insect cells (Sf21; S. frugiperda) and subsequent affinity-chromatographic purification as “N-terminal 6His-tagged” recombinant human protein in a baculovirus expression vector.
The test plates used are 96-well Flashplate^R microtitre plates from Perkin Elmer (Cat. No. SM P200). The components of the kinase reaction described below are pipetted into the assay plate. The Met kinase and the substrate poly Ala-Glu-Lys-Tyr, (pAGLT, 6:2:5:1), are incubated for 3 hrs at room temperature with radioactively labelled ^33P-ATP in the presence and absence of test substances in a total volume of 100 μl. The reaction is terminated using 150 μl of a 60 mM EDTA solution. After incubation for a further 30 min at room temperature, the supernatants are filtered off with suction, and the wells are washed three times with 200 μl of 0.9% NaCl solution each time. The measurement of the bound radioactivity is carried out by means of a scintillation measuring instrument (Topcount NXT, Perkin-Elmer).
The full value used is the inhibitor-free kinase reaction. This should be approximately in the range 6000-9000 cpm. The pharmacological zero value used is staurosporin in a final concentration of 0.1 mM. The inhibitory values (IC50) are determined using the RS1_MTS program.
Kinase reaction conditions per well: • 30 μl of assay buffer • 10 μl of substance to be tested in assay buffer with 10% of DMSO • 10 μl of ATP (final concentration 1 μM cold, 0.35 μCi of ^33P-ATP) • 50 μl of Met kinase/substrate mixture in assay buffer; • (10 ng of enzyme/well, 50 ng of pAGLT/well) • Solutions used: • Assay buffer: • 50 mM HEPES • 3 mM magnesium chloride • 3 μM sodium orthovanadate • 3 mM manganese(II) chloride • 1 mM dithiothreitol (DTT) • pH=7.5 (to be set using sodium hydroxide) • Stop solution: • 60 mM Titriplex III (EDTA) • ^33P-ATP: Perkin-Elmer; • Met kinase: Upstate, Cat. No. 14-526, Stock 1 μg/10 μl; spec. activity 954 U/mg; • Poly-Ala-Glu-Lys-Tyr, 6:2:5:1:Sigma Cat. No. P1152

T1 sequence (P08581 974-1390 limits assumed): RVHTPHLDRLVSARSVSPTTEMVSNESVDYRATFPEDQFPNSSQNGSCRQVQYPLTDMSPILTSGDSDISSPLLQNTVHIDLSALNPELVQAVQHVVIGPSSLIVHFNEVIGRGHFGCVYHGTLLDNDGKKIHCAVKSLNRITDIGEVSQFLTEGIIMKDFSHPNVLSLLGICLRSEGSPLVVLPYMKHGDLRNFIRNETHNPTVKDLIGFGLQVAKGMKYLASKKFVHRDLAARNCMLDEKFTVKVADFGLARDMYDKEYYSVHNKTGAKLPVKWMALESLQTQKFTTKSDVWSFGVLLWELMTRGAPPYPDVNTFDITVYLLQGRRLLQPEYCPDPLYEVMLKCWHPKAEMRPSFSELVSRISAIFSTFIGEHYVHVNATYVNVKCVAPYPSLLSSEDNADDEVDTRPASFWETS

Compound: COc1ccc(C2=NN(C(=O)Cc3ccc4nsnc4c3)CC2)c(OC)c1 [Compound A1, 1-(benzo-1,2,5-thiadiazol-5-ylmethylcarbonyl)-3-(2,4-dimethoxyphenyl)-4,5-dihydro-1H-pyrazole]
IC50: 320 nM

Compound: O=C(Cc1ccc2nsnc2c1)N1CCC(c2ccc(F)cc2)=N1 [Compound A2, 1-(benzo-1,2,5-thiadiazol-5-ylmethylcarbonyl)-3-(4-fluorophenyl)-4,5-dihydro-1H-pyrazole]
IC50: 610 nM

Compound: O=C(Cc1cccc(O)c1)N1CCC(c2ccc(F)cc2)=N1 [Compound A31, 1-(3-Hydroxybenzylcarbonyl)-3-(4-fluorophenyl)-4,5-dihydro-1H-pyrazole]
IC50: 330 nM

Compound: CC(C(=O)N1CCC(c2ccc3c(c2)CNC(=O)N3)=N1)c1ccc(O)cc1 (stereo not drawn) [Compound A100, 3-(2-Oxo-3,4-dihydro-1H-quinazolin-6-yl)-1-[2-(4-hydroxyphenyl)propionyl]-4,5-dihydro-1H-pyrazole]
IC50: 9 nM

Compound: O=C(Cc1ccc2[nH]cnc2c1)N1CCC(c2cc(Cl)ccc2O)=N1 [Compound A108, 1-[2-(1H-Benzimidazol-5-yl)acetyl]-3-(3-chloro-6-hydroxyphenyl)-4,5-dihydro-1H-pyrazole]
IC50: 3 nM

Compound: CC(C(=O)N1CCC(c2cc(Cl)ccc2O)=N1)c1ccc(O)cc1 (stereo not drawn) [Compound A120, 3-(3-Chloro-6-hydroxyphenyl)-1-[2-(4-hydroxy-phenyl)propionyl]-4,5-dihydro-1H-pyrazole]
IC50: 3.6 nM

Further lines, results first:

IC50: 990 nM
Compound: COc1ccc(C2=NN(C(=O)Cc3cccc(O)c3)CC2)c(OC)c1 [Compound A30, 1-(3-Hydroxybenzylcarbonyl)-3-(2,4-dimethoxy-phenyl)-4,5-dihydro-1H-pyrazole]

IC50: 8 nM
Compound: CN(C)CCCOC(=O)Nc1cccc(CC(=O)N2CCC(c3cc(Cl)ccc3Cl)=N2)c1 [Compound A153, 3-Dimethylaminopropyl (3-{2-[3-(2,5-dichlorophenyl)-4,5-dihydro-1H-pyrazol-1-yl]-2-oxoethyl}phenyl)carbamate]

IC50: 2.5 nM
Compound: O=C(Nc1cccc(CC(=O)N2CCC(c3cc(Cl)ccc3Cl)=N2)c1)OCCCN1CCOCC1 [Compound A154, 3-morpholin-4-ylpropyl (3-{2-[3-(2,5-dichlorophenyl)-4,5-dihydro-1H-pyrazol-1-yl]-2-oxoethyl}phenyl)carbamate]

Source: US7875644B2, “1-acyldihydropyrazole derivatives” (Merck Patent GmbH, priority 2005, dated 2011)
